{"source": "paper PMC10856415", "about": "“Lactoferricin B Combined with Antibiotics Exhibits Leukemic Selectivity and Antimicrobial Activity” (Molecules, 2024)", "key": {"HL60 [1]": {"test_system": "HL60", "assay": "MTT drug sensitivity assay on HL60", "format": "cell-based, human", "conditions": "normalized to EC50", "protocol": "(§1) As mentioned in [61], we followed detailed procedures, including the composition of media and growth conditions, for the application of conjugate 4 on both HL60 and HEK293 in the MTT drug sensitivity assay. The initial cellular density for cultures seeded in a 96-well plate was 5000 cells/well for HL60 and 1500 cells/well for HEK293.\n(§2) Supplementary Table S1. […] 4. […]\n(§3) of incubation; The initial cellular density for HL60 was 5,000 cells, and for HEK293, it was 1,500 cells […]\n(§4) Supplementary Table S2. […] The conversion from IC50 to EC50 was performed following the method outlined in [62]; For IC50 values, please refer to Supplementary […]\n(§5) For MIC and IC50 data, please also refer to Ptaszyńska et al., 2019. Abbreviations: S. e. - Staphylococcus epidermidis ATCC 12228; B. s. - Bacillus subtilis ATCC 6633; S. a. - Staphylococcus aureus ATCC 25923; P. a - Pseudomonas aeruginosa ATCC 27853; B. c - Bacillus cereus PCM 2003; C. k. - Candida krusei DSM 6128; C. p. - Candida parapsilosis DSM 5784; C. a. - Candida albicans ATCC 10231; C. g. - Candida glabrata DSM 11226; C. t. - Candida […]"}, "HEK293 [2]": {"test_system": "HEK293", "assay": "MTT drug sensitivity assay on HEK293", "format": "cell-based, human", "conditions": "normalized to EC50", "protocol": "as §1, §2, §3, §4, §5"}, "BT20": {"test_system": "BT20", "assay": "Cell proliferation (EC50, selectivity index) on BT20", "format": "cell-based, human", "conditions": "normalized to EC50", "protocol": "(§6) To evaluate their effect on leukemia, cancer, and non-cancer cells, the Malignancy Selectivity Index was calculated as MSI = EC50 (non-cancerous)/EC50 (leukemic or cancerous) or EC50 (leukemic or cancerous)/EC50 (leukemic or cancerous).\nas §2, §3, §4, §5"}, "A549": {"test_system": "A549", "assay": "Cell proliferation (EC50, selectivity index) on A549", "format": "cell-based, human", "conditions": "normalized to EC50", "protocol": "as §6, §2, §3, §4, §5"}, "Candida krusei DSM 6128": {"test_system": "Candida krusei DSM 6128", "conditions": "C. krusei, relative to IC50 of HL60"}, "HL60 [3]": {"test_system": "HL60", "assay": "Mitochondrial potential, DiOC6(3) flow cytometry in HL60", "format": "cell-based, human", "conditions": "HL60 stained with DIOC6(3)", "protocol": "HL60 was incubated with 100 nM 3,3′-dihexyloxacarbocyanine iodide (DiOC6(3)) (Cat. D273, Thermo Fisher Scientific). Cells were stained under culture conditions for 15 min, washed with prewarmed PBS, and examined by Guava EasyCyte flow cytometer (Merck-Millipore, USA). The results of flow cytometry were analyzed with Flowing Software 2.5.1 (Turku Bioscience, Finland)."}, "S. aureus": {"test_system": "S. aureus", "assay": "Switch of S. aureus asymmetric phosphatidylserine location (Annexin V / 7AAD)", "format": "cell-based, Staphylococcus aureus", "conditions": "MIC concentrations, first hour to 6 h", "protocol": "Bacterial cultures with an […], as utilized in bacteriostatic experiments (Ptaszyńska et al., 2019 [16, 48]), were plated on Petri dishes. Compounds were added at the MIC concentration to the test sample, while no compound was added to the negative control. After an appropriate incubation period (45 min, […]), samples were collected and promptly washed with PBS. The pellet was then suspended in 100 μL of annexin binding buffer (BioSource International, Camarillo, CA, USA), which included 0.25 μL of 7-AAD (7-aminoactinomycin D, 1 mg/mL, Sigma) and 1 μL of Annexin–FITC (Thermo Fisher, Waltham, MA, USA). Following the addition of 400 μL of annexin binding buffer, the samples were left in the dark for 15 min. Subsequently, the samples were placed on ice and immediately read by the Guava EasyCyte (Merck-Millipore, Burlington, MA, USA). Flow results were analyzed with the free online software https://floreada.io/ (accessed on 30 November 2023; the last update was carried out in June 2023)."}, "HL60 [4]": {"test_system": "HL60", "conditions": "HL60, CM-H2DCFDA, compound at 2-fold IC90", "method": "(§7) Cell lines were cultured as mentioned above and seeded in Petri dishes (Falcon, Cary, NC, USA) in the amount of 25 × 10^3 per Φ35 dish. HEK293 cells were allowed to attach overnight. ROS generation potential was tested for selected compounds after 0.25, 0.5, 1, 3, 6, and 24 h of incubation. The CM-H2DCFDA molecular probe (Thermo Fisher Scientific, Waltham, MA, USA) at a final concentration of 1 µM was added 15 min before the analysis. After staining, HEK293 cells were trypsinized, harvested, and suspended in fresh media. The 7AAD (Cat. A9400, Sigma Aldrich) was added just before analysis. Analyses were carried out with a Guava EasyCyte flow cytometer (Merck-Millipore, USA). Flow cytometry data were processed with Flowing Software 2.5.1 (Turku Bioscience, Turku, Finland)."}, "HEK293 [5]": {"test_system": "HEK293", "conditions": "HEK293, CM-H2DCFDA, compound at 2-fold IC90", "method": "as §7"}}, "note": "Square brackets hold non-standard residues; d marks the D form. Ends that are not written are not given here. Peptide text beside a SMILES is read from it. * marks the point of attachment. X1 = N[C@@H](CS*)C(=O)N1CCN(c2cc3c(cc2F)c(=O)c(C(=O)O)cn3C2CC2)CC1; X2 = O=C(Cn1cc(CC(O)(Cn2cncn2)c2ccc(F)cc2F)nn1)*; Nle = CCCC[C@H](N)C(=O)O"}
{"compound": "conjugate 1: covalently bonded LfcinB and LVX (FKCRRWQWRMKKLGAPSITCVRRAF; ends and bridges not checked; also: covalently bonded to levofloxacin, site not given here; UniProt P24627 36-60, looked up)", "values": [{"measurement": "Malignancy Selectivity Index, HL60 section, A549 column", "setting": "HL60 [1]; A549 vs HL60", "result": 8.9}, {"measurement": "Malignancy Selectivity Index, HL60 section, BT20 column", "setting": "HL60 [1]; BT20 vs HL60", "result": 3.0}, {"measurement": "Malignancy Selectivity Index, HL60 section, HEK293 column", "setting": "HL60 [1]; HEK293 vs HL60", "result": 39.4}, {"measurement": "Malignancy Selectivity Index, HEK293 section, A549 column", "setting": "HEK293 [2]; A549 vs HEK293", "result": 0.2}, {"measurement": "Malignancy Selectivity Index, HEK293 section, BT20 column", "setting": "HEK293 [2]; BT20 vs HEK293", "result": 0.1}, {"measurement": "Malignancy Selectivity Index, BT20 section, A549 column", "setting": "BT20; A549 vs BT20", "result": 2.9}, {"measurement": "Malignancy Selectivity Index, BT20 section, HEK293 column", "setting": "BT20; HEK293 vs BT20", "result": 13.1}, {"measurement": "Malignancy Selectivity Index, BT20 section, HL-60 column", "setting": "BT20; HL-60 vs BT20", "result": 0.3}, {"measurement": "Malignancy Selectivity Index, A549 section, BT20 column", "setting": "A549; BT20 vs A549", "result": 0.3}, {"measurement": "Malignancy Selectivity Index, A549 section, HEK293 column", "setting": "A549; HEK293 vs A549", "result": 4.4}, {"measurement": "Malignancy Selectivity Index, A549 section, HL-60 column", "setting": "A549; HL-60 vs A549", "result": 0.1}, {"measurement": "FSI (Fungistatic Selectivity Index)", "setting": "Candida krusei DSM 6128", "result": 2.9}]}
{"compound": "CCCC[C@H](NC(=O)[C@H](CCCNC(=N)N)NC(=O)[C@H](Cc1c[nH]c2ccccc12)NC(=O)[C@H](CCC(N)=O)NC(=O)[C@H](Cc1c[nH]c2ccccc12)NC(=O)[C@H](CCCNC(=N)N)NC(=O)[C@H](CCCNC(=N)N)NC(=O)[C@H](CSSC[C@H](N)C(=O)N1CCN(c2cc3c(cc2F)c(=O)c(C(=O)O)cn3C2CC2)CC1)NC(=O)[C@H](CCCCN)NC(=O)[C@@H](N)Cc1ccccc1)C(N)=O", "note": "[conjugate 3] (H-FKC(X1)RRWQWR[Nle]-NH2; N-terminus assumed)", "values": [{"measurement": "Impact on mitochondrial potential", "setting": "HL60 [3]", "result": "minimal impact"}, {"measurement": "Reduction in number of events (7AAD vs. Annexin V) compared to LfcinB", "setting": "S. aureus", "result": "more pronounced"}]}
{"compound": "CSCC[C@H](NC(=O)[C@H](CCCNC(=N)N)NC(=O)[C@H](Cc1c[nH]c2ccccc12)NC(=O)[C@H](CCC(N)=O)NC(=O)[C@H](Cc1c[nH]c2ccccc12)NC(=O)[C@H](CCCNC(=N)N)NC(=O)[C@H](CCCNC(=N)N)NC(=O)[C@H](CS)NC(=O)[C@H](CCCCN)NC(=O)[C@H](Cc1ccccc1)NC(=O)Cn1cc(CC(O)(Cn2cncn2)c2ccc(F)cc2F)nn1)C(N)=O", "note": "(stereo partly shown) [conjugate 4] (X2-FKCRRWQWRM-NH2; N-terminus assumed)", "values": [{"measurement": "Levels of cellular ROS", "setting": "HL60 [4]", "result": "negligible"}, {"measurement": "Levels of cellular ROS", "setting": "HEK293 [5]", "result": "negligible"}]}
